The conditions of data set [1]: cited from earlier work.
For a further data set, the system named is WT HIV-1 (IIIB). Nature of the data set: microbe, parasite or virus in culture. Conditions: Human immunodeficiency virus 1, IIIB, MT2, read-out: EC50 in cell assays.

Consider two molecules from PMC3759246 (Bioorganic & medicinal chemistry letters, 2013).

Marks after values point to notes of the source that are not given here.

Consider `Cc1cc(C#N)cc(C)c1Oc1nc(Nc2ccc(C#N)cc2)nc(N)c1Br` [etravirine], for which the “Aqueous solubility S” value in data set [1] is listed as “≪ 1 ^b μg/mL”.

Broadly, the EC50 is the concentration needed to bring the measured effect to its halfway point. As to `Cc1ccnc2c1NC(=O)c1cccnc1N2C1CC1` [nevirapine], the EC50 in the data set with WT HIV-1 (IIIB) is roughly 100 nM.
